Results as given in patent US11357873B2, “Chiral cyclen compounds and their uses” (THE HONG KONG POLYTECHNIC UNIVERSITY, priority 2016, dated 2022).
One block for each compound: values may come before it.

Experiments:
[1] = Relaxivity (r1, r2) measurement of Gd(III) complexes in water, BSA and human plasma; format: physicochemical; set-up: r1 Human Plasma (1.5 T): unit not given beside the values; settings: 37° C.
Experimental: This is very important because the huge difference in the inner-sphere coordinated water exchange rate between the two isomers is a key factor for applications, for example, as MRI contrast agents. To show their potential value, the two diastereomers of [GdL2]^− ([GdL2A]^− and [GdL2B]^−) were separated and their relaxivities were measured. The relaxivities of [GdL1]^−, [GdL2]^−, [GdL2A]^−, [GdL2B]^− and [GdDOTA]^− in water at different magnetic strengths (1.5 T and 11.7 T) were compared, with or without the presence of BSA and human plasma (1.5 T) (Table 1). It is clearly seen that the complexes of [GdL1]^−, [GdL2A]^− and [GdL2B]^− have relaxivity properties similar to that of the [GdDOTA]^− complex.

[2] = Kinetic inertness: competitive titration with DTPA, UPLC-HRMS; format: physicochemical; settings: 1000 eq. of DTPA, pH 5.0, 0.1 M ammonium acetate, shaken 7 days; for decomplexation in presence of competitive ligand DTPA: room temperature
Experimental: Experimental procedure: Stock solution of [GdL1]^− and [GdL2]^− were prepared in 0.1 M ammonium acetate, 0˜1000 equivalents of DTPA were added into the solutions, the final concentrations of the gadolinium complexes were 14.8 mM for [GdL1]^− and 21.6 mM for [GdL2]^− (6 mL). The mixtures were shaken at room temperature, and samples of 1 ml of solutions were taken out for UPLC-HRMS analysis on day 3 and day 7.
Results: Competitive bath titrations were performed with the Gd analogues, [GdL1]^− and [GdL2]^−, in the presence of 0-1000 equivalents of competitive ligand DTPA (pentetic acid or diethylenetriaminepentaacetic acid) in 0.1 M ammonium acetate solution. After being shaken for 7 days (1000 eq. of DTPA, pH 5.0), the mixtures were analyzed by UPLC-HRMS. […] This finding is of significant importance for future use of the complexes in biomedical applications.

[3] = Stability of isomers on heating and storage by 1H NMR; format: physicochemical
Text: In aqueous solution, the ratio of TSA/SA isomers of Eu(III) and Yb(III) complexes in DOTA-like systems can be easily determined by ^1H NMR as two well-defined sets of six resonances are observed for the diastereotopic protons in CH2CO and NCH2CH2N.^13 Although the Gd(III) complexes cannot be analyzed by NMR, their ratio of isomers are expected to be similar to those of the Eu(III) and Yb(III) complexes because the ionic radius of Gd(III) is similar to the ionic radius of Eu(III) and Yb(III).
The conformational properties of the lanthanide complexes were investigated by both HPLC and NMR spectroscopy. The ^1H NMR spectra of the four europium chiral DOTA-based complexes are compared in FIG. 3. […] In the cases of [EuL3]^− and [EuL4]^−, the twisted antiprismatic isomers were more dominant, with the ratio of 6.52 for [EuL3]^− and 13.50 for [EuL4]^− observed.
The stability of the complexes toward racemization over time was also monitored by ^1H NMR (FIG. 20). […] Nevertheless, the original set of peaks existed predominately when the pD was adjusted from 6.0 to 7.5 and further heated for 12 h at 90° C. It can be observed that while the purity of the ligands may not be highly satisfactory, pure complexes could be obtained by HPLC separation after complexation. This phenomenon indicates the purification of DOTA-based ligands should be handled with care.

[4] = Absorption and photoluminescence (quantum yield, lifetime, q); format: physicochemical; set-up: λabs(max): unit not given here; settings: for R, I(5D0 → 7F2)/I(5D0 → 7F1): asymmetry ratio, 10 in MeOH; for R, I(5D0 → 7F2)/I(5D0 → 7F1) / λabs(max): room temperature, 11 in DMSO; for ΦDMSO (%): luminescence quantum yield in DMSO; for λabs(max): 10 measured in MeOH
Experimental: (§1) Absorption spectra of complexes were measured with HP UV-8453 spectrophotometer. Steady-state room temperature photoluminescence measurements were performed with an Edinburgh Instrument FLSP920 spectrophotometer equipped with a Xe900 continuous xenon lamp, μF920 microsecond flash lamp and a single photon counting photomultiplier tube. Spectra were corrected with the bundled F900 software. Solution-state measurements were conducted using quartz curettes of 10 mm path length. CPL measurements were conducted on a custom built spectrometer^63 (in Durham University) consisting of a laser driven light source (Energetiq EQ-99 LDLS, spectral range 170 to 2100 nm) coupled to an Acton SP2150 monochromator (600 g/nm, 300 nm Blaze) that allows excitation wavelengths to be selected with a 6 nm FWHM band-pass. The collection of the emitted light was facilitated (90° angle set up, 1 cm path length quartz curette) by a Lock-In Amplifier (Hinds Instruments Signaloc 2100) and Photoelastic Modulator (Hinds Instruments PEM-90). The differentiated light was focused onto an Acton SP2150 monochromator (1200 g/nm, 500 nm Blaze) equipped with a high sensitivity cooled Photo Multiplier Tube (H10723-20 Extended red-multialkali PMT based photosensor (5V)). Spectra were recorded using a 5 spectral average sequence in the range of 570-720 nm with 0.5 nm spectral intervals and 500 μs integration time. The recorded CPL spectrum underwent a 25% Fourier transformation smoothening protocol using Origin 8.0 Software (Origin Labs) to enhance appearance (all calculations were carried out using raw spectral data).
The shift in absorption is caused by electronic communication between the electropositive lanthanide center and the chromophore. […] These are not observed for 11, however, as we believe the steric effect of the planar phenyl ring of the benzyl group could not be alleviated by appropriate rotation, whereas that of the isobutyl group could.
The luminescence quantum yields of the complexes are decent in water and HEPES solution, although they are much higher in DMSO, due to the nonradiative quenching by O—H oscillators of water molecules in the second coordination sphere (Table 6). The intrinsic quantum yields^61—a calculated value evaluating the quantum yield of Eu(III) via direct metal excitation—of the complexes are calculated, and, as expected, the values are very similar, except for 10. The higher value corroborates with the shift in absorption maximum, for which we believe the reason is due to a shorter europium—chromophore distance and better interaction. On the other hand, the sensitization efficiencies of the complexes vary. […] The relatively remarkable ηsens of 13 is attributed to its structural rigidity, as both the tetraaza backbone and the acetate arms are modified with a chrial substituent, i.e., double chirality. The double chirality is also attributed for the increase in luminescence quantum yield compared to that of 12a/12b.

[5] = Circularly polarized luminescence (CPL), dissymmetry factor glum; format: physicochemical; settings: wavelength in parentheses in the cell
Experimental: as §1, with “Steady-state” for “Absorption spectra of complexes were measured with HP UV-8453 spectrophotometer. Steady-state”, “time.” for “time. The recorded CPL spectrum underwent a 25% Fourier transformation smoothening protocol using Origin 8.0 Software (Origin Labs) to enhance appearance (all calculations were carried out using raw spectral data).”

[6] = Water solubility of complexes; format: physicochemical
BSA = BSA (Bos taurus, UniProt P02769); test: Protein binding with BSA determined by ICP-MS; format: in vitro ADME
human plasma = test: Protein binding with human plasma determined by ICP-MS; format: in vitro ADME
[7] = ICP-MS, summary of Tables 2 and 3
[8] = Table 2, sample A, conc. before 0.32286251 mM
[9] = Table 2, sample B, conc. before 0.15917209 mM
[10] = Table 2, sample C, conc. before 0.02070731 mM
[11] = Table 3, sample A, conc. before 0.3714242 mM
[12] = Table 3, sample B, conc. before 0.1551093 mM
[13] = Table 3, sample C, conc. before 0.0251512 mM
[14] = Table 2, sample A, conc. before 0.3167862 mM
[15] = Table 2, sample B, conc. before 0.162104 mM
[16] = Table 2, sample C, conc. before 0.021152 mM
[17] = Table 3, sample A, conc. before 0.3699171 mM
[18] = Table 3, sample B, conc. before 0.134016 mM
[19] = Table 3, sample C, conc. before 0.0189002 mM

BSA, sequence (P02769 25-607): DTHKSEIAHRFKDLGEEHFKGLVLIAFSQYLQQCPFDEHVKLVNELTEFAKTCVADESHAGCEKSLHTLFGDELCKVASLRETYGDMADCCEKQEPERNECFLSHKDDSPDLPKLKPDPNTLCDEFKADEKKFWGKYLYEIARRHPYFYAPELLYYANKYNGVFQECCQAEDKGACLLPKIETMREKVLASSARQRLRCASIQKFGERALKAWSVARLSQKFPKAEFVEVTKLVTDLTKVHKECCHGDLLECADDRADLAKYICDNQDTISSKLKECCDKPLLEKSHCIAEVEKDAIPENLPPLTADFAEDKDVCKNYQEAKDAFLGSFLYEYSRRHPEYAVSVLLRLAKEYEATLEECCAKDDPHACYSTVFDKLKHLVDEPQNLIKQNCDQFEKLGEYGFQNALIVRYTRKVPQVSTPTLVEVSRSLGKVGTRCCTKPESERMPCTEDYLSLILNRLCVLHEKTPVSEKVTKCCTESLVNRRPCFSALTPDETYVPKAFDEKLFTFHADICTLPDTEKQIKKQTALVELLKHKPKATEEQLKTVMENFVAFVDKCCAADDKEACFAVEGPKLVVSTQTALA

ratio of TSA/SA after DTPA challenge [2]: remained the same | decomplexation in presence of competitive ligand DTPA [2]: No trace of any decomplexation
SMILES: CC[C@H]1CN(CC(=O)[O-])[C@@H](CC)CN(CC(=O)[O-])[C@@H](CC)CN(CC(=O)[O-])[C@@H](CC)CN1CC(=O)[O-].[Gd+3] [[GdL2]^−]
r1 4.5 w/v BSA (1.5 T) [1]: 3.6 | r1 Human Plasma (1.5 T) [1]: 2.9 | r1 Water (1.5 T) [1]: 2.6 | r1 Water (11.7 T) [1]: 3.1

isomer ratio after heating (lack of racemization) ([3]; solution of [EuL2A]− and [EuL2B]− at 1:0.25, 90° C. for 3 days): remained at the same ratio
SMILES: CC[C@H]1CN(CC(=O)[O-])[C@@H](CC)CN(CC(=O)[O-])[C@@H](CC)CN(CC(=O)[O-])[C@@H](CC)CN1CC(=O)[O-].[Eu+3] (single isomer, unassigned) [[EuL2A]^−]

R, I(5D0 → 7F2)/I(5D0 → 7F1) [4]: 2.69 | ΦDMSO (%) [4]: 40.4% | λabs(max) [4]: 354 | glum ΔJ = 3 (λ) DMSO ([5]; DMSO): +0.25 (657) | water solubility [6]: poor water solubility
SMILES: COc1cc(OC)c(C#Cc2cc(CN3CC(Cc4ccccc4)N(CC(=O)[O-])CC(Cc4ccccc4)N(CC(=O)[O-])CC(Cc4ccccc4)N(CC(=O)[O-])CC3Cc3ccccc3)nc(P(C)(=O)[O-])c2)c(OC)c1.[Eu+3] (stereo not shown) [Complex 11]

complex binding with BSA (BSA; [7]): less than 5% | % bound In BSA (BSA; [8]): (1.3% bound) | Conc. (mM) In BSA after (BSA; [8]): 0.3185 mM | % bound In BSA (BSA; [9]): (1.5% bound) | Conc. (mM) In BSA after (BSA; [9]): 0.1568 mM | % bound In BSA (BSA; [10]): (3.7% bound) | Conc. (mM) In BSA after (BSA; [10]): 0.02 mM | % bound In BSA (BSA; [11]): (1.9% bound) | Conc. (mM) In BSA after (BSA; [11]): 0.3641 mM | % bound In BSA (BSA; [12]): (3.4% bound) | Conc. (mM) In BSA after (BSA; [12]): 0.1498 mM | % bound In BSA (BSA; [13]): (2.2% bound) | Conc. (mM) In BSA after (BSA; [13]): 0.02458 mM | complex binding with human plasma (human plasma; [7]): less than 5% | % bound In Plasma (human plasma; [14]): (2.2% bound) | Conc. (mM) In Plasma after (human plasma; [14]): 0.3097 mM | % bound In Plasma (human plasma; [15]): (1.8% bound) | Conc. (mM) In Plasma after (human plasma; [15]): 0.1592 mM | % bound In Plasma (human plasma; [16]): (4.7% bound) | Conc. (mM) In Plasma after (human plasma; [16]): 0.02015 mM | % bound In Plasma (human plasma; [17]): (2.6% bound) | Conc. (mM) In Plasma after (human plasma; [17]): 0.3602 mM | % bound In Plasma (human plasma; [18]): (2.2% bound) | Conc. (mM) In Plasma after (human plasma; [18]): 0.1311 mM | % bound In Plasma (human plasma; [19]): (3.9% bound) | Conc. (mM) In Plasma after (human plasma; [19]): 0.01816 mM | ratio of TSA/SA after DTPA challenge [2]: remained the same | decomplexation in presence of competitive ligand DTPA [2]: No trace of any decomplexation
SMILES: C[C@H]1CN(CC(=O)[O-])[C@@H](C)CN(CC(=O)[O-])[C@@H](C)CN(CC(=O)[O-])[C@@H](C)CN1CC(=O)[O-].[Gd+3] [[GdL1]^−]
r1 4.5 w/v BSA (1.5 T) [1]: 4.1 | r1 Human Plasma (1.5 T) [1]: 3.9 | r1 Water (1.5 T) [1]: 3.4 | r1 Water (11.7 T) [1]: 2.8

SMILES: CC[C@@H]1CN(CC(=O)[O-])[C@H](CC)CN(Cc2cc(C#Cc3c(OC)cc(OC)cc3OC)cc(P(C)(=O)[O-])n2)[C@H](CC)CN(CC(=O)[O-])[C@H](CC)CN1CC(=O)[O-].[Eu+3] [Complex 9]
1H NMR spectrum after storage (stability toward racemization) ([3]; 9 months at room temperature, pD 6.0, D2O): consistent after 9 months of storage | 1H NMR spectrum upon heating (stability toward racemization) ([3]; heating at 90° C.): a new set of peaks appeared | R, I(5D0 → 7F2)/I(5D0 → 7F1) [4]: 2.44 | q (Parker's) ([4]; from lifetimes in H2O and D2O, first value of cell): 0.02 | q (Horrocks') ([4]; from lifetimes in H2O and D2O, second value of cell): 0.05 | ΦEuEu (%) ([4]; intrinsic quantum yield, calculated value): 28.1% | τD2O/MeOD ([4]; luminescence lifetime, 5D0 → 7F2 transition, D2O (MeOD for 10)): 1.77 ms | τH2O/MeOH ([4]; luminescence lifetime, 5D0 → 7F2 transition, H2O (MeOH for 10)): 1.20 ms | ΦDMSO (%) [4]: 53.0% | ΦH2O/MeOH (%) ([4]; luminescence quantum yield relative to quinine sulfate in 0.1M H2SO4, H2O (MeOH for 10, insoluble in H2O)): 14.9% | ΦHEPES (%) ([4]; luminescence quantum yield, 0.1M HEPES buffer, pH 7.4): 14.3% | λabs(max) [4]: 356 | ηsens (%) ([4]; sensitization efficiency, calculated according to ref 61): 53.0% | glum ΔJ = 1 (λ) DMSO ([5]; DMSO): +0.17 (591) | glum ΔJ = 3 (λ) DMSO ([5]; DMSO): +0.13 (657) | glum ΔJ = 1 (λ) H2O ([5]; H2O): +0.12 (591) | glum ΔJ = 3 (λ) H2O ([5]; H2O): +0.21 (653)
